Test results: PubChem BioAssay AID248 (DTP/NCI, 2004)
Several values for one entry are separate records, joined by “and”; a condition that tells them apart may be missing. Identical values can stand only once. Inconclusive results and toxic doses are left out. Cut-off read from the data, not from the text of the source: active = T/C of 150% or more; inactive = T/C below 125%.

Test system: L1210 leukemia ip in BDF1 mice, survival T/C
Assay: NCI In Vivo Anticancer Drug Screen. Data for tumor model L1210 Leukemia (intraperitoneal) in B6D2F1 (BDF1) mice
Details: endpoint: mean survival time, higher = longer survival
Outline: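 Mice bearing the transplanted tumor received compound or vehicle. Survival of the treated group was divided by that of the vehicle-treated control group to give the ratio.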

[1] = dose: 100.0 mg/kg/injection, schedule: Q01DX001 (ip), vehicle: Klucel (hydroxypropylcellulose) (HPC)
[2] = dose: 100.0 mg/kg/injection, schedule: Q01DX009 (ip), vehicle: Klucel (hydroxypropylcellulose) (HPC)
[3] = dose: 100.0 mg/kg/injection, schedule: Q04DX003 (ip), vehicle: Klucel (hydroxypropylcellulose) (HPC)
[4] = dose: 200.0 mg/kg/injection, schedule: Q01DX001 (ip), vehicle: Klucel (hydroxypropylcellulose) (HPC)
[5] = dose: 200.0 mg/kg/injection, schedule: Q01DX009 (ip), vehicle: Klucel (hydroxypropylcellulose) (HPC)
[6] = dose: 200.0 mg/kg/injection, schedule: Q04DX003 (ip), vehicle: Klucel (hydroxypropylcellulose) (HPC)
[7] = dose: 400.0 mg/kg/injection, schedule: Q01DX001 (ip), vehicle: Klucel (hydroxypropylcellulose) (HPC)
[8] = dose: 400.0 mg/kg/injection, schedule: Q01DX009 (ip), vehicle: Klucel (hydroxypropylcellulose) (HPC)
[9] = dose: 400.0 mg/kg/injection, schedule: Q04DX003 (ip), vehicle: Klucel (hydroxypropylcellulose) (HPC)
[10] = dose: 100.0 mg/kg/injection, schedule: Q01DX001 (ip), vehicle: carboxymethylcellulose (CMC)
[11] = dose: 200.0 mg/kg/injection, schedule: Q01DX001 (ip), vehicle: carboxymethylcellulose (CMC)
[12] = dose: 400.0 mg/kg/injection, schedule: Q01DX001 (ip), vehicle: carboxymethylcellulose (CMC)
[13] = dose: 200.0 mg/kg/injection, schedule: Q04DX003 (ip), vehicle: saline with Tween-80

Measured: T/C

CCCCCCN(CCCCCC)CP(=S)(CN(CCCCCC)CCCCCC)CN(CCCCCC)CCCCCC
inactive: dose: 100.0 mg/kg/injection, schedule: Q01DX001 (ip), vehicle: saline with Tween-80 99 % of control | dose: 200.0 mg/kg/injection, schedule: Q01DX001 (ip), vehicle: saline with Tween-80 104 % of control

CC(C)(C)C(=O)CN1C(=O)c2ccccc2C1=O
inactive: [1] 108 % of control | [2] 96 % of control and 97 % of control | dose: 100.0 mg/kg/injection, schedule: Q04DX002 (ip), vehicle: Klucel (hydroxypropylcellulose) (HPC) 101 % of control and 103 % of control | [3] 101 % of control | [4] 112 % of control | [5] 96 % of control and 104 % of control | dose: 200.0 mg/kg/injection, schedule: Q04DX002 (ip), vehicle: Klucel (hydroxypropylcellulose) (HPC) 98 % of control and 103 % of control | [6] 95 % of control | [7] 118 % of control | [8] 97 % of control and 108 % of control | dose: 400.0 mg/kg/injection, schedule: Q04DX002 (ip), vehicle: Klucel (hydroxypropylcellulose) (HPC) 103 % of control and 109 % of control | [9] 103 % of control

O=c1[nH]cc(COCC(F)(F)C(F)(F)C(F)(F)F)c(=O)[nH]1
inactive: dose: 50.0 mg/kg/injection, schedule: Q01DX005 (ip), vehicle: water 104 % of control | dose: 100.0 mg/kg/injection, schedule: Q01DX005 (ip), vehicle: water 93 % of control | dose: 200.0 mg/kg/injection, schedule: Q01DX005 (ip), vehicle: water 95 % of control | dose: 400.0 mg/kg/injection, schedule: Q01DX005 (ip), vehicle: water 87 % of control

CCCCCCCCCCCCOc1cccc(OCCCCCCCCCCCC)c1
inactive: [1] 92 % of control | [4] 87 % of control | [7] 87 % of control

CC(O)c1cccc(NC(=O)Nc2ccc(Cl)c(Cl)c2)c1 (stereo not given)
inactive: [2] 96 % of control | [5] 98 % of control | [8] 96 % of control

CCOC(=O)NCCBr
inactive: [2] 102 % of control | [3] 101 % of control | [5] 102 % of control | [6] 106 % of control | [8] 100 % of control | [9] 94 % of control

COc1ccccc1NP1(=O)OCC(C)([N+](=O)[O-])CO1 (stereo not given)
inactive: [10] 89 % of control | [11] 104 % of control | [12] 93 % of control

O=C(N/N=C/c1ccc2c(c1)OCO2)C(O)(c1ccccc1)c1ccccc1
inactive: [10] 106 % of control | [11] 95 % of control | [12] 103 % of control

COc1ccc(CCN=Cc2ccc(Cl)cc2)cc1OC
inactive: [2] 104 % of control | [3] 93 % of control | [5] 95 % of control | [6] 96 % of control | [8] 95 % of control | [9] 103 % of control

O=C(COc1ccc(Cl)cc1)Nc1ccccc1F
inactive: [2] 88 % of control | [3] 95 % of control | [5] 89 % of control | [6] 88 % of control | [8] 91 % of control | [9] 90 % of control

O=CO.[Cd]
inactive: dose: 5.0 mg/kg/injection, schedule: Q01DX001 (ip), vehicle: saline 104 % of control

CC(C)=CCC/C(C)=C\CN=C1C=CC(=O)O1
inactive: dose: 25.0 mg/kg/injection, schedule: Q01DX009 (ip), vehicle: saline + alcohol 97 % of control | dose: 25.0 mg/kg/injection, schedule: Q04DX003 (ip), vehicle: other 107 % of control | dose: 50.0 mg/kg/injection, schedule: Q01DX009 (ip), vehicle: saline + alcohol 90 % of control | dose: 50.0 mg/kg/injection, schedule: Q04DX003 (ip), vehicle: other 107 % of control | dose: 100.0 mg/kg/injection, schedule: Q04DX003 (ip), vehicle: other 121 % of control | dose: 100.0 mg/kg/injection, schedule: Q04DX003 (ip), vehicle: saline 91 % of control

CCOC(CNC(=O)OCc1ccccc1)OCC
inactive: dose: 50.0 mg/kg/injection, schedule: Q01DX009 (ip), vehicle: Klucel (hydroxypropylcellulose) (HPC) 98 % of control | [2] 96 % of control and 106 % of control | [3] 96 % of control | dose: 150.0 mg/kg/injection, schedule: Q01DX009 (ip), vehicle: Klucel (hydroxypropylcellulose) (HPC) 102 % of control | [5] 98 % of control | [6] 105 % of control | [8] 101 % of control | [9] 97 % of control

CC(=O)C1=C(C)NC(C)=C(C(C)=O)C1c1ccccc1
inactive: dose: 100.0 mg/kg/injection, schedule: Q04DX003 (ip), vehicle: saline with Tween-80 96 % of control | [13] 96 % of control | dose: 400.0 mg/kg/injection, schedule: Q04DX003 (ip), vehicle: saline with Tween-80 98 % of control

COc1ccc(C2CCc3cc(OC)c(OC)cc3C2=O)cc1OC (stereo not given)
inactive: dose: 20.0 mg/kg/injection, schedule: Q01DX009 (ip), vehicle: saline with Tween-80 93 % of control | dose: 40.0 mg/kg/injection, schedule: Q01DX009 (ip), vehicle: saline with Tween-80 94 % of control | dose: 80.0 mg/kg/injection, schedule: Q01DX009 (ip), vehicle: saline with Tween-80 90 % of control | dose: 120.0 mg/kg/injection, schedule: Q01DX009 (ip), vehicle: saline with Tween-80 93 % of control | dose: 120.0 mg/kg/injection, schedule: Q01DX009 (ip), vehicle: saline 107 % of control | dose: 240.0 mg/kg/injection, schedule: Q01DX009 (ip), vehicle: saline with Tween-80 96 % of control | dose: 240.0 mg/kg/injection, schedule: Q01DX009 (ip), vehicle: saline 96 % of control | dose: 360.0 mg/kg/injection, schedule: Q01DX009 (ip), vehicle: saline 93 % of control | dose: 545.0 mg/kg/injection, schedule: Q01DX009 (ip), vehicle: saline 91 % of control

CCOC(=O)C(C)(C)CC(=O)COC
inactive: dose: 100.0 mg/kg/injection, schedule: Q01DX001 (ip), vehicle: acetone 98 % of control | dose: 100.0 mg/kg/injection, schedule: Q01DX009 (ip), vehicle: acetone 95 % of control | dose: 200.0 mg/kg/injection, schedule: Q01DX001 (ip), vehicle: acetone 100 % of control | dose: 200.0 mg/kg/injection, schedule: Q01DX009 (ip), vehicle: acetone 90 % of control | dose: 400.0 mg/kg/injection, schedule: Q01DX001 (ip), vehicle: acetone 94 % of control | dose: 400.0 mg/kg/injection, schedule: Q01DX009 (ip), vehicle: acetone 105 % of control

O=c1o[nH]c(-c2ccccc2)c1-c1ccccc1
inactive: dose: 1.56 mg/kg/injection, schedule: Q04DX003 (ip), vehicle: saline 98 % of control | dose: 3.12 mg/kg/injection, schedule: Q04DX003 (ip), vehicle: saline 102 % of control | dose: 6.25 mg/kg/injection, schedule: Q04DX003 (ip), vehicle: saline 102 % of control | dose: 12.5 mg/kg/injection, schedule: Q04DX003 (ip), vehicle: saline 94 % of control | [13] 93 % of control

COc1ccc(OC)c(NC(=O)Nc2ccc([N+](=O)[O-])cc2OC)c1
inactive: [2] 96 % of control | [5] 93 % of control | [8] 94 % of control

COCC(=O)C(C(C)=O)C(c1ccc2c(c1)OCO2)C(C(C)=O)C(=O)COC (stereo not given)
inactive: dose: 100.0 mg/kg/injection, schedule: Q01DX009 (ip), vehicle: saline with Tween-80 87 % of control
